In article PMC6406907, “A H2AX–CARP-1 Interaction Regulates Apoptosis Signaling Following DNA Damage” (Cancers, 2019):
Blank lines part the entries; values can stand above or below the molecule they belong to. No end group written: not given here.

Tests used:
[1] = test system: CARP-1, phospho-JNK1/2, phospho-H2AX, PARP; test: Western blot of CARP-1, phospho-JNK1/2, γH2AX, cleaved PARP in MDA-MB-468; format: cell-based, human
MDA-MB-231 HBC cells = settings: MDA-MB-231, compared with untreated counterparts; ref [34]; cited from earlier work
DBC1 (CCAR2) = test: Co-immunoprecipitation with Dbc1 (CCAR2); format: cell-based; settings: Dbc1-expressing PT67 (NIH3T3 murine fibroblast subline) cells, anti-Flag IP
Description: (Clontech) were first transfected with recombinant PLNCX2/Flag-Dbc1 plasmid (10), and stable, neomycin-resistant sublines were generated and characterized for Dbc1 expression essentially as described by us before (5; [35]). The Dbc1 expressing PT67 cells were then separately transfected with pcDNA3 vector, pcDNA3-Gst, pcDNA3-Gst-H2AX, pcDNA3-EGFP, or pcDNA3-EGFP-H2AX (1–35) plasmids. Approximately 1mg of cell lysate from each of transfected, Dbc1-expressing, PT67 cells was subjected to immunoprecipitation using anti-Flag tag M2 antibodies (F1804, Sigma). The immunoprecipitates were then analyzed by WB by probing the membrane with anti-Gst (top autoradiograph), anti-p53 D2H90 rodent specific rabbit mAb (32532S; Cell Signaling; 2nd autoradiograph from top), or anti-Fag tag (for Dbc1) antibodies (3rd autoradiograph from top). The membranes containing […] of respective cell lysates (marked as whole cell lysates) were subsequently probed with anti-Gst tag (Bottom left autoradiograph) or anti-EGFP antibodies (Bottom right autoradiograph) to ascertain expression of transfected, Gst, Gst-tagged H2AX proteins, EGFP, and EGFP-H2AX (1–35) proteins. The presence of respective proteins is indicated by an arrowhead on the left side of each blot. Approximate location of various molecular weight markers is indicated on the right side of each blot. kDa, kilodalton.
© 2019 by the authors. […]

Gst-H2AX = test: Gst-pulldown with Gst-H2AX; format: binding, human; settings: E. coli-expressed, 4 °C, 2 h, WB anti-HA, Figure 5A
Description: (§1) Logarithmically growing cells were either untreated or treated with different agents for various time periods. The cells were lysed to prepare protein extracts. IP was carried out by incubating approximately 1 mg of the protein lysate with appropriate antibodies. The immunoprecipitates were then analyzed by SDS-PAGE, followed by WB with respective, interacting protein. For Gst-pulldown, Gst-H2AX or various His-TAT-HA-tagged CARP-1 peptides were generated in Escherichia coli (E. coli) BL21 cells essentially as described by us previously. Briefly, the competent E. coli BL-21 (DE3) pLysS cells were transformed separately with various recombinant pGEX-4T-1 or pTAT-HA constructs. The transformed cells were then subjected to selection by combined presence of ampicillin and chloramphenicol; various isolates for each transformation were obtained and bacterial lysates were characterized for expression of fusion peptides. Cells from each isolate were grown in 4 mL of LB medium containing ampicillin only until the optical density (OD)600 reached 0.4–0.8. Expression of fusion peptides was induced over 2–4 h incubation periods after Isopropyl β-D-1-thiogalactopyranoside (IPTG) addition. The cells were harvested, and pellets were stored at −80 °C overnight. […]

Gst-H2AX (1–35) = test: Gst-pulldown with Gst-H2AX (1–35); format: binding, human; settings: E. coli-expressed, 4 °C, 2 h, WB anti-HA, Figure 5B
Description: as §1

H2AX (1–35) peptide = target: T1, H2AX (1–35) peptide (Homo sapiens, UniProt P16104); test: Surface plasmon resonance, CARP-1 peptide with H2AX (1–35) peptide; format: binding; settings: SPR, PBST pH 7.4, 25 °C, 1:1 global fit
T1 construct: CARP-1 (636–650) and H2AX (1–35) peptides, each with ≥90% purity, were commercially synthesized; purchased
Description: Affinity purification of the Gst-tagged or His-tagged fusion proteins was carried out essentially following procedure previously described by us. Briefly, the bacteria expressing respective fusion protein were cultured in 500 mL of LB medium containing ampicillin until the OD600 reached 0.4–0.6. Protein expression was induced by addition of IPTG over an additional 2–4-h incubation at 37 °C. Cells were harvested, and pellets were stored overnight at −80 °C, and lysed in 4–5 mL of BPER lysis buffer containing DNAse I as detailed above. […] Fractions containing eluted fusion protein were pooled, and dialyzed overnight at 4 °C in 1–2 L of 1× Tris-buffered saline (BioRad, Hercules, CA, USA) with multiple buffer changes. Following measurement of protein concentration, the purified protein was aliquoted and snap-frozen in liquid N2 for storage. […]
Next, kinetics of CARP-1 binding with H2AX were determined by surface plasmon resonance (SPR) technology (Profacgen, Shirley, NY, USA). […] The signal changes after binding and washing (in AU) were recorded as the assay value. Selected protein-grafted regions in the SPR images were analyzed, and the average reflectivity variations of the chosen areas were plotted as a function of time. Real-time binding signals were recorded and analyzed using a data analysis module (DAM) obtained from Plexera Bioscience (Seattle, WA, USA). […]

Molecule: Cc1cc(NC(=O)c2cccc(NC(=O)/C=C/CN(C)C)c2)ccc1Nc1nccc(-c2cccnc2)n1 [JNK-IN-8]
- JNK activation ([1]; MDA-MB-468, 5 μM JNK-IN-8, WB): total loss of JNK activation
- levels of CARP-1 ([1]; MDA-MB-468, combination of JNK-IN-8 (5 μM) with Adriamycin, WB): elevated levels of CARP-1
- γH2AX ([1]; MDA-MB-468, combined presence of JNK-IN-8 (5 μM) and Adriamycin, WB): reduced levels of γH2AX
- levels of CARP-1 ([1]; MDA-MB-468, single agent (JNK-IN-8 at 5 μM), WB): elevated levels of CARP-1
- viabilities (MDA-MB-231 HBC cells): significantly reduced viabilities

Molecule: H2AX (1–35): commercially synthesized H2AX (1–35) peptide; epitope of H2AX (tested as EGFP-tagged protein) (MSGRGKTGGKARAKAKSRSSRAGLQFPVGRVHRLL; UniProt P16104 1-35, looked up, fragment)
- interaction with DBC1 (DBC1 (CCAR2)): does not interact

- binding with Gst-H2AX protein (Gst-H2AX): bound with Gst-H2AX protein
Molecule: His-TAT-HA-CARP-1 (631–660): E. coli-expressed His-TAT-HA-tagged CARP-1 peptide (WSKLDPKTMKVNDLRKELESRALSSKGLKS; also: His, TAT and HA tags kept, end not given here)
- binding with Gst-H2AX (1–35) (Gst-H2AX (1–35)): bound with Gst-H2AX and Gst-H2AX (1–35) proteins

- kon (H2AX (1–35) peptide; read-out: Ka (association rate constant)): 2320 M⁻¹ s⁻¹
- koff (H2AX (1–35) peptide; read-out: Kd (dissociation rate constant)): 0.000292 s⁻¹
Molecule: WSKLDPKTMKVNDLRKELESRALSSKGLKS [CARP-1 (631–660)]
